The text below walks through data of paper PMC4351682, “Formononetin inhibits enterovirus 71 replication by regulating COX- 2/PGE2 expression” (Virology Journal, 2015).

Series [1] concerns Vero cells. Nature of the series: Cytotoxicity assay (MTS) in Vero cells. Type of series: cell-based. The following applies: 3 days. The procedure: (§1) Cytotoxic effect of formononetin on Vero or SK-N-SH cells was assayed by MTS (promega) assay. Briefly, cells (3 × 10^4 cells/well) were seeded into 96-well culture plates and were incubated overnight. Then, the medium was removed and different concentrations of formononetin were applied in triplicate. After 3 days’ incubation, the cytotoxicity of formononetin was determined by MTS assay. The TC50 was defined as the concentration that inhibits 50% cellular growth in comparison with the controls and the TC0 was defined as the maximal non-toxicity dose.

For series [2], the system named is SK-N-SH cells. Nature of the series: Cytotoxicity assay (MTS) in SK-N-SH cells. The following applies: 3 days. The class given is cell-based. The procedure: as §1
Series [3] has as its system EV71 strain JS-52. The series is described as follows: CPE inhibition assay, EV71 strain JS-52 in Vero cells. Type of series: cell-based, enterovirus 71. The following applies: Enterovirus A, EV71 JS-52, Vero cells. On the procedure: (§2) The anti-EV71 activity of formononetin was assayed by CPE inhibition method. Briefly, cells (3 × 10^4 cells/well) were plated into 96-well culture plates for incubation of 24 h. The medium was then removed and cells were infected with EV71 of 80 pfu/well. Then, various concentrations of formononetin were supplemented for incubation of another 48 h. The IC50 defined as the minimal concentration of inhibitor required to inhibit 50% of CPE was determined by Reed & Muench method. The selectivity index (SI) was calculated as the ratio of TC50/IC50 [19].

Series [4] concerns EV71 strain H. The series is described as follows: CPE inhibition assay, EV71 strain H in Vero cells. The class given is cell-based, enterovirus 71. The following applies: Enterovirus A. On the procedure:
as §2

For series [5], the system named is EV71 strain BrCr. Nature of the series: CPE inhibition assay, EV71 strain BrCr in Vero cells. The class given is cell-based, enterovirus 71. The following applies: Enterovirus A. On the procedure:
as §2

Series [6] concerns CVB3 (strain Nancy). Nature of the series: CPE inhibition assay for anti-CVBs, CVB3 in Vero cells. The following applies: Enterovirus B, CVB3, 100 TCID50, Vero cells. Type of series: cell-based, coxsackievirus B3. The procedure: The anti-virus activity of formononetin on CVBs was also assayed by CPE method. Briefly, cells (3 × 10^4 cells/well) were plated into 96-well culture plates for incubation of 24 h. The medium was removed and cells were infected with 100 TCID50 of CVB2, CVB6 or CVB3. Then, various concentrations of formononetin were supplemented for incubation of another 48 h. The IC50 was determined by Reed and Muench method. The SI was calculated as the ratio of TC50/IC50 [19].

Series [7] has as its system EV71 VP1 RNA. Nature of the series: One-step qRT-PCR of EV71 VP1 RNA in SK-N-SH cells. The class given is cell-based, enterovirus 71. The following applies: EV71 SHZH98 480 pfu/well, 24 h treatment. The text has this: (§3) Figure 2 The antiviral effect of formononetin and pirodavir against EV71 in SK-N-SH cells. (A) Formononetin and pirodavir reduced the expression of EV71 VP1 protein in SK-N-SH cells by western blot assay. (B) Formononetin and pirodavir reduced the expression of EV71 VP1 protein in SK-N-SH cells by immunofluorescence assay. Cells were examined using a fluorescence microscopy (×100). (C) Formononetin and pirodavir reduced the expression of EV71 VP1 RNA by one-step qRT-PCR assay. *P < 0.001 ^# P < 0.05.
SK-N-SH cells (9 × 10^5cells/well) were plated into 6-well culture plates for incubation of 16 h. The medium was removed and cells were infected with EV71 (SHZH98) of 480 pfu/well. After 2 h, various concentrations of formononetin were supplemented for incubation of another 24 h. The total RNA of the infected cells was extracted using the RNeasy Mini kit (QIAGEN) according to the manufacturer’s instructions. The one-step qRT-PCR was performed with SuperScript III Platinum SYBR Green One-step RT PCR Kit (Invitrogen) using the ABI 7500 Fast Real-Time PCR system (Applied Biosystems). The mRNA expression of EV71 VP1 was detected with sense primer 5’-[…]-3’ and antisense primer 5’-[…]-3’ targeting a conserved region of the VP1 gene. The β-actin mRNA was detected using sense primers 5’-TGACGGGGT CACCCACA CTGTGCCCATCTA-3’ and antisense primer 5’-CTAGAAGCATTTG CGGTGGACG ATG-3’.

Series [8] relates to PGE2. The series is described as follows: PGE2 release assay (EIA) in EV71-infected SK-N-SH cells. Type of series: cell-based. The following applies: pretreatment 24 h, formononetin 14.91 μmol/L, pirodavir 1.08 μmol/L, supernatant at 24 h p.i. On the procedure: Figure 4 Formononetin could inhibit EV71-induced COX-2 expression and PGE 2 production. (A) Formononetin but not pirodavir can reduce the expression of COX-2 induced by EV71 infection. SK-N-SH cells were mock-infected or infected with 480 pfu/well of EV71 (SHZH98) for 2 h. The cells were then treated with formononetin (14.91 μmol/L) and pirodavir (1.08 μmol/L), respectively, for 24 h. The cells were harvested and EV71-VP1 and COX-2 were examined by western blot. (B) Formononetin but not pirodavir can reduce the release of PGE2 stimulated by EV71 infection. SK-N-SH cells were pretreated with formononetin (14.91 μmol/L) or pirodavir (1.08 μmol/L) for 24 h. The cells were infected with 4.8 × 10^5 pfu/well of EV71 (SHZH98). At 24 h p.i., the culture supernatants were harvested for PGE2 release assay. For the detection of PGE2 release, SK–N–SH cells (3 × 10^5 cells/well) were seeded into 24-well culture plates and were incubated for 16 h. And then the cells were serum-deprived for 24 h and incubated with EV71 for the indicated time intervals. When drugs were used, they were added 24 h prior to the application of EV71. After treatment, the supernatants were harvested. The supernatant from each sample was assayed using a PGE2 EIA kit (AMEKO) following the manufacturer’s instruction. […] The absorbance of each well was measured at 450 nm.

Series [9] concerns EV71 VP1 protein. The series is described as follows: Immunofluorescence assay of EV71 VP1 protein in SK-N-SH cells. The class given is cell-based, enterovirus 71. The following applies: EV71 SHZH98 160 pfu/well, 24 h treatment.
Source text: as §3
SK-N-SH cells grown on glass coverslips (Thermo) were infected with EV71 (SHZH98) of 160 pfu/well for 2 h. Then, various concentrations of formononetin were supplemented for incubation of another 24 h. After incubation, the culture medium was removed and the cells were washed and fixed. The cells were permeabilized in 0.5% Triton X-100 at room temperature for 15 min and blocked in PBS containing 1% BSA for 60 min at room temperature. Cells were then incubated with an anti-EV71 VP1 antibody (Abnova) at a dilution of 1: 500 for 2 h at room temperature. After washing three times with PBS, the samples were reacted with Alexa Fluor 488-labeled goat anti-mouse secondary antibody (Beyotime Institute of Biotechnology, China) for 1 h at room temperature. After washing with PBS, images were taken using a fluorescence microscope (Olympus, IX71).

As usually defined, the IC50 is the concentration at which inhibition is half-maximal.

As to `COc1ccc(-c2coc3cc(O)ccc3c2=O)cc1` [Formononetin], the “TC0 (maximal non-toxicity dose)” value in [1] amounted to 41.42 ± 0 µmol/L; in series [1] (listed as formononetin), 41.42 µmol/L; in series [2], 55.92 ± 0 µmol/L; in series [2] (listed as formononetin), 55.92 µmol/L. Further, the “TC50 (50% toxicity concentration)” value in series [1] stood at 149.38 ± 12.15 µM; in series [1] (listed as formononetin), 149.38 µM; in series [2], 198.80 ± 6.02 µM; in [2] (listed as formononetin), 198.80 µM. Besides, the IC50 in [3] was found to be 17.9 ± 8.51 µM; in [4] it was 11.1 ± 9.23 µM; in series [5], 6.47 ± 4.4 µM; in [6] it was 2.57 ± 0.87 µM. Besides, in series [7], the “Levels of EV71 RNA (RT-qPCR)” value is on record as “dose-dependently decreased”. The “EV71-stimulated PGE2 release” value in series [8] is “attenuated”.
Consider `CCOC(=O)c1ccc(OCCC2CCN(c3ccc(C)nn3)CC2)cc1` [Pirodavir, reference compound], for which, in [9], the “Expression of EV71 VP1 protein (immunofluorescence assay)” value is on record as “reduced”. The “Levels of EV71 RNA (RT-qPCR)” value in series [7] is listed as “decrease”. In series [8], the “EV71-stimulated PGE2 release” value was “not”.
